Laboratory results as given in US20070184082A1, “Biocompatible polymeric delivery systems for sustained release of quinazolinones” (priority 2004, published 2007).

Legend:
healthy male volunteers = assay: Phase I clinical study of safety of oral halofuginone, three dosing regimens; format: in vivo, human
Protocol: The Phase I clinical study described below was conducted in the PPD Development Clinical Pharmacology Unit, 72 Hospital Close, Evington, Leicester, United Kingdom, between September 2001 and October 2001. The objective of this study was to compare the safety and tolerability of halofuginone when a daily dose of 2 mg is administered using three different dosing regimens.
A single-center, open label, three-period, phase I study was performed. Eight subjects attended the PPD Development Clinic for pre-study screening […]. Visits at the Clinic were as follows:
Subjects were admitted to the Clinic on the evening of Day-1. After an overnight fast, subjects received an oral dose of 0.25 mg halofuginone with a standard snack. Each subject received a total of eight doses at 3-hour intervals starting at approximately 10:00 h on Day 1, and remained resident in the Clinic until the morning of Day 3 [after the 24 hour pharmacokinetic (PK) sample]. They returned to the Clinic for an out-patient visit on the morning of Day 4 to provide a PK blood sample. There was a washout of at least 6 days after the last dose in Period 1 before the start of dosing in Period 2.
Subjects were admitted to the Clinic at approximately 07:00 h on Day 1. Subjects were provided with breakfast and then fasted until the first dose. Subjects received an oral dose of 0.5 mg halofuginone with a standard meal at 6-hour intervals starting at approximately 13:00 h (a total of four doses) and remained resident in the Clinic until the morning of Day 3 (after the 24 hour PK sample). They returned to the Clinic for an out-patient visit on the morning of Day 4 to provide a PK blood sample. There was a washout of at least 6 days after the last dose in Period 2 before the start of dosing in Period 3.
Subjects were admitted to the Clinic on the evening of Day-1. After an overnight fast, subjects received a single oral dose of 2 mg halofuginone with breakfast at approximately 07:00 h on Day 1 and remained resident in the Clinic until the morning of Day 2 (after the 24 hour PK sample). They returned to the clinic for an out-patient visit on the morning of Day 3 to provide a PK blood sample.
Adverse events (AEs) were monitored throughout the study period. Vital signs (including blood pressure, pulse rate and oral body temperature), electrocardiogram (ECG), physical examinations and routine laboratory safety analyses were conducted at the pre-study screening and at the post-study follow-up visits.
Eight healthy male Caucasian subjects were enrolled into the study. The mean age was 31.1 years (range 19-39 years), mean height was 176.6 cm (range 169-184 cm), mean weight was 78.9 kg (range 62.7-91.7 kg) and mean BMI was 25.2 kg/m^2 (range 21.9-27.9 kg/m^2). All subjects completed the study.

clinical = conditions: human, in vivo, po, 2 mg
Protocol: The present interim pharmacokinetic analysis was carried out by ASTER. Patients included were treated for solid tumour. On study Day 1 each patient received one oral dose of halofuginone, either 1 mg (one patient) or 2 mg (6 patients), and blood samples for pharmacokinetics were collected up to 72 hours (3 days) after dosing. Immediately after the collection of the 72 hour blood sample, patients started the multiple dose regimen consisting in morning daily dose administration of 1 mg (for subject No.1) or 2 mg (6 remaining patients) until study Day 15. Urine samples were collected over 48 hours after first dosing. Urine concentrations were only available for patients No.1, No.2, No.3 and No.4, and thus only 4 patients were included in the analysis of urine excretion data.

humans = assay: Maximum tolerated oral dose of halofuginone in humans; conditions: oral administration

With `O=C(CC1NCCCC1O)Cn1cnc2cc(Br)c(Cl)cc2c1=O` (centres unmarked) [halofuginone, 7-bromo-6-chloro-3-[3-(3-hydroxy-2-piperidinyl)-2-oxopropyl]-4(3H)-quinazolinone] the tolerability conclusion (healthy male volunteers; 2 mg given as eight doses of 0.25 mg with a snack or 4 doses of 0.5 mg with a meal) was “safe and well tolerated”, the “treatment-emergent AEs considered moderate in severity” value (healthy male volunteers; human, in vivo) was “two” and the “headache AEs” value (healthy male volunteers; male, human, in vivo) was 3 AEs. For the same compound, the “nausea AEs” value (healthy male volunteers; male, human, in vivo) was 13 AEs, the “time to resolution of all vomiting AEs and most nausea AEs” value (healthy male volunteers; male, human, in vivo) was 1 h and 0.717 h and the “total AEs reported” value (healthy male volunteers; male, human, in vivo) was 29. For the same compound, the “treatment-emergent AEs” value (healthy male volunteers; male, human, in vivo) was 28, the “treatment-emergent AEs considered mild” value (healthy male volunteers; male, human, in vivo) was 26 and the tolerability conclusion (healthy male volunteers; single dose of 2 mg with a meal) was “less well tolerated”. The half-life (clinical) was 37.2 h and the “maximum tolerated dose with no adverse effects observed” value (humans) was 1 mg/day.
